Laboratory results: PubChem BioAssay AID248 (DTP/NCI, 2004)
Inconclusive results and toxic doses are left out. Rule as the data show it: active = T/C of 150% or more; inactive = T/C below 125%.

Tested on: L1210 leukemia ip in BDF1 mice, survival T/C
Assay: NCI In Vivo Anticancer Drug Screen. Data for tumor model L1210 Leukemia (intraperitoneal) in B6D2F1 (BDF1) mice
Details: endpoint: mean survival time, higher = longer survival
Summary of the method: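 Tumor cells were implanted, animals were treated, and survival was followed. The result divides the treated measurement by the vehicle-control measurement.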

[1] = dose: 25.0 mg/kg/injection, schedule: Q01DX009 (ip), vehicle: saline
[2] = dose: 25.0 mg/kg/injection, schedule: Q04DX003 (ip), vehicle: saline
[3] = dose: 50.0 mg/kg/injection, schedule: Q01DX009 (ip), vehicle: saline
[4] = dose: 50.0 mg/kg/injection, schedule: Q04DX003 (ip), vehicle: saline
[5] = dose: 100.0 mg/kg/injection, schedule: Q04DX003 (ip), vehicle: saline
[6] = dose: 100.0 mg/kg/injection, schedule: Q01DX009 (ip), vehicle: Klucel (hydroxypropylcellulose) (HPC)
[7] = dose: 200.0 mg/kg/injection, schedule: Q01DX009 (ip), vehicle: Klucel (hydroxypropylcellulose) (HPC)
[8] = dose: 400.0 mg/kg/injection, schedule: Q01DX009 (ip), vehicle: Klucel (hydroxypropylcellulose) (HPC)
[9] = dose: 100.0 mg/kg/injection, schedule: Q01DX001 (ip), vehicle: saline
[10] = dose: 200.0 mg/kg/injection, schedule: Q01DX001 (ip), vehicle: saline
[11] = dose: 400.0 mg/kg/injection, schedule: Q01DX001 (ip), vehicle: saline
[12] = dose: 100.0 mg/kg/injection, schedule: Q01DX009 (ip), vehicle: saline
[13] = dose: 200.0 mg/kg/injection, schedule: Q01DX009 (ip), vehicle: saline
[14] = dose: 200.0 mg/kg/injection, schedule: Q04DX003 (ip), vehicle: saline
[15] = dose: 400.0 mg/kg/injection, schedule: Q01DX009 (ip), vehicle: saline
[16] = dose: 400.0 mg/kg/injection, schedule: Q04DX003 (ip), vehicle: saline

Measured: T/C

CCNC(=O)c1csnn1
inactive: dose: 75.0 mg/kg/injection, schedule: Q01DX001 (ip), vehicle: other 98 % of control | dose: 150.0 mg/kg/injection, schedule: Q01DX001 (ip), vehicle: other 101 % of control | dose: 300.0 mg/kg/injection, schedule: Q01DX001 (ip), vehicle: other 104 % of control

CCCCCNC(C)C(=O)c1ccccc1 (configuration not stated)
inactive: dose: 12.5 mg/kg/injection, schedule: Q04DX003 (ip), vehicle: saline 87 % of control | [1] 92 % of control | [2] 94 % of control | [3] 100 % of control | [4] 94 % of control | [5] 97 % of control

O=[N+]([O-])c1cccc(C=Nc2cccc3ccccc23)c1
inactive: [6] 96 % of control | [7] 98 % of control | [8] 88 % of control

OCCNc1ccc(I)cc1
inactive: dose: 100.0 mg/kg/injection, schedule: Q01DX009 (ip), vehicle: saline with Tween-80 90 % of control | dose: 200.0 mg/kg/injection, schedule: Q01DX009 (ip), vehicle: saline with Tween-80 92 % of control | dose: 400.0 mg/kg/injection, schedule: Q01DX009 (ip), vehicle: saline with Tween-80 87 % of control

O=S(=O)(Cl)c1ccc(Oc2ccc(S(=O)(=O)Cl)cc2)cc1
inactive: dose: 50.0 mg/kg/injection, schedule: Q01DX001 (ip), vehicle: saline 105 % of control | [9] 94 % of control | [10] 105 % of control | [11] 90 % of control

CC1=NC(=NC(=O)c2ccccc2)N=C1
inactive: dose: 100.0 mg/kg/injection, schedule: Q04DX003 (ip), vehicle: saline with Tween-80 97 % of control | dose: 200.0 mg/kg/injection, schedule: Q04DX003 (ip), vehicle: saline with Tween-80 96 % of control | dose: 400.0 mg/kg/injection, schedule: Q04DX003 (ip), vehicle: saline with Tween-80 96 % of control

CC(c1ccccc1)S(=O)(=O)c1ccccc1 (configuration not stated)
inactive: [9] 102 % of control | [12] 95 % of control | [5] 97 % of control | [10] 101 % of control | [13] 101 % of control | [14] 95 % of control | [11] 95 % of control | [15] 97 % of control | [16] 95 % of control

N#C/C(=C\c1cccn1Cc1cc2ccccc2c2ccccc12)C(N)=O
inactive: dose: 25.0 mg/kg/injection, schedule: Q04DX002 (ip), vehicle: saline 105 % of control | dose: 50.0 mg/kg/injection, schedule: Q04DX002 (ip), vehicle: saline 108 % of control | dose: 100.0 mg/kg/injection, schedule: Q04DX002 (ip), vehicle: saline 119 % of control

c1ccc(CC2NCCc3c2[nH]c2ccccc32)cc1 (configuration not stated)
inactive: dose: 25.0 mg/kg/injection, schedule: Q01DX009 (ip), vehicle: Klucel (hydroxypropylcellulose) (HPC) 104 % of control | dose: 25.0 mg/kg/injection, schedule: Q04DX003 (ip), vehicle: Klucel (hydroxypropylcellulose) (HPC) 92 % of control | dose: 50.0 mg/kg/injection, schedule: Q01DX009 (ip), vehicle: Klucel (hydroxypropylcellulose) (HPC) 103 % of control | [6] 93 % of control | dose: 100.0 mg/kg/injection, schedule: Q04DX003 (ip), vehicle: Klucel (hydroxypropylcellulose) (HPC) 89 % of control | [7] 108 % of control | dose: 200.0 mg/kg/injection, schedule: Q04DX003 (ip), vehicle: Klucel (hydroxypropylcellulose) (HPC) 97 % of control | dose: 400.0 mg/kg/injection, schedule: Q04DX003 (ip), vehicle: Klucel (hydroxypropylcellulose) (HPC) 97 % of control

COC(=O)C1OC1c1cc(OC)ccc1OC (configuration not stated)
inactive: dose: 100.0 mg/kg/injection, schedule: Q01DX001 (ip), vehicle: saline with Tween-80 102 % of control | [5] 102 % of control | dose: 200.0 mg/kg/injection, schedule: Q01DX001 (ip), vehicle: saline with Tween-80 103 % of control | [14] 100 % of control | dose: 400.0 mg/kg/injection, schedule: Q01DX001 (ip), vehicle: saline with Tween-80 89 % of control | [16] 97 % of control

O=C(c1ccc2ccccc2c1)c1cccc(F)c1C(=O)O (tested in a mixture with another compound)
inactive: dose: 75.0 mg/kg/injection, schedule: Q01DX001 (ip), vehicle: carboxymethylcellulose (CMC) 95 % of control | dose: 150.0 mg/kg/injection, schedule: Q01DX001 (ip), vehicle: carboxymethylcellulose (CMC) 90 % of control

COc1ccc(Cl)cc1NS(=O)(=O)c1c(C)cc(C)cc1C
inactive: [12] 104 % of control | [13] 96 % of control | [15] 111 % of control

O=C(Nc1ccc(Cl)cc1[N+](=O)[O-])N1CCN(c2ccccc2)CC1
inactive: dose: 44.0 mg/kg/injection, schedule: Q01DX009 (ip), vehicle: Klucel (hydroxypropylcellulose) (HPC) 101 % of control | dose: 66.0 mg/kg/injection, schedule: Q01DX009 (ip), vehicle: Klucel (hydroxypropylcellulose) (HPC) 97 % of control | [6] 101 % of control | dose: 150.0 mg/kg/injection, schedule: Q01DX009 (ip), vehicle: Klucel (hydroxypropylcellulose) (HPC) 95 % of control | [7] 96 % of control | [8] 101 % of control

CNCC(C)(C)c1ccccc1
inactive: dose: 6.25 mg/kg/injection, schedule: Q01DX009 (ip), vehicle: saline 101 % of control | dose: 12.5 mg/kg/injection, schedule: Q01DX009 (ip), vehicle: saline 101 % of control | [1] 102 % of control | [2] 104 % of control | [3] 107 % of control | [4] 104 % of control | [12] 104 % of control | [5] 106 % of control
